# Data from patent publication US9963485B2, “Cycloheptapeptide agents for treatment of cancer and obesity diseases” (Hong Kong Baptist University, priority 2012, dated 2018).
# *1 amine or outer side, *2 acyl side, *3 side chain or, on linkers, in order; H or OH if unused. Where a SMILES comes first, the peptide text is derived from it. [ ]: non-standard residue; d: D form. X2 = C[C@@H]1C([C@@H](N[*:1])C(=O)[*:2])[C@H]1C; X1 = C[C@@H]1C([C@H](N[*:1])C(=O)[*:2])[C@H]1C; X3 = CC1C(C)C1C(N[*:1])C(=O)[*:2]; NMeL = CN[CH](CC(C)C)C(=O)O; NMeA = CN[CH](C)C(=O)O; dNMeA = CN[C@H](C)C(=O)O
# How the values were obtained:
# [1] = system: oral epidermoid (KB) carcinoma cell line; test: Cytotoxicity assay (sulforhodamine B), KB; type: cell-based, human; conditions: KB cells
# Experimental: (§4) Pure compounds are evaluated against the human cancer cell lines comprising our cytotoxicity screening panel. Cytotoxicity assays involving oral epidermoid (KB), colon (HCT116), prostate (LNCaP), breast (MCF7), Hela (cervical), leukemia (HL-60) melanoma (A375) and lung (A549) carcinoma cell lines, are performed using sulforhodamine B according to established protocols (Zhang et al., Journal of Medicinal Chemistry 2006; 49: 693-708; and Jutiviboonsuk A et al., Phytochemistry 2005; 66: 2745-2751.). KB and A375 cells are maintained in DMEM (Dulbecco's modified Eagle medium) medium. LNCaP and HL60 cells are maintained in RPMI1640 medium with hormone-free 10% heat-activated FBS (fetal bovine serum) supplemented with 0.1 nM testosterone. MCF7 and Hela cells are maintained and assayed in MEME (Minimum Essential Medium Eagle) medium containing 10 mg/L of insulin. HCT116 cells are maintained in McCoy's 5A medium supplemented with 10% fetal bovine serum. A549 cells are maintained in RPMI-1640 medium supplemented with 10% FCS. Serial dilutions of the compounds are prepared using 10% aqueous DMSO as solvent. The 190 μL cell suspension (3×10^4 cells in 1 ml media) is incubated with 10 μL sample solutions, in triplicate, in 96-well tissue culture plate at 37° C. in a humidified atmosphere of 5% CO2 in air for 72 hours. 10 μL 10% aqueous DMSO is used as control group. Then the cells are fixed to plastic substratum by the addition of 100 μL cold 20% aqueous trichloroacetic acid and washing with water after incubation at 4° C. for 30 min. After staining cells with 100 μL of 0.4% sulforhodamine B in 1% aqueous AcOH for 30 min, unbound dye is removed by rinsing with 1% aqueous AcOH. The bound dye is solubilized with 200 μL 10 mM unbuffered Tris base, pH 10, and the optical density is measured at 515 nm using an ELISA plate reader. The average data are expressed as a percentage, relative to the control. The IC50 values, the dose that inhibit cell growth by 50%, are calculated using nonlinear regression analysis (percent survival versus concentration).
# [2] = system: lung (A549) carcinoma cell line; test: cells; type: cell-based, human
# Experimental: as §4
# [3] = system: breast (MCF7) carcinoma cell line; test: cells; type: cell-based, human
# Experimental: as §4
# [4] = system: panel of cancer cell lines comprising KB, HCT116, LNCaP, A549, MCF7, HL60, Hela and A375; conditions: for IC50: read-out: Cell killing activity, IC50 values range over the panel, range over panel of human cancer cell lines
# [5] = system: colon (HCT116) carcinoma cell line; test: Cytotoxicity assay (sulforhodamine B), HCT116; conditions: read-out: Cytotoxic activity IC50, HCT116; HCT116 cells, 72 hours
# Experimental: as §4
# [6] = system: lung cancer cell line (A549); test: Hollow fiber in vivo test, A549; design: species or system mouse
# Experimental: (§1) Hollow fiber tests are well known in the art for providing preliminary indications of therapeutic efficacy (Mi et al. J. Nat. Prod. 2002, 65: 842-850). In hollow fiber tests, human tumor cell lines currently employed in cell cultures are grown inside semipermeable hollow fibers to form heterogeneous solid tumor models. […] By evaluating the test compound's inhibition of tumor cell growth versus the toxic response in the host, a preliminary estimate of therapeutic efficacy is provided in a cost- and time effective manner.
# [7] = system: colon cancer cell line (HCT116); test: Hollow fiber in vivo test, HCT116; design: species or system mouse
# Experimental: as §1
# [8] = system: breast cancer cell line (MCF7); test: Hollow fiber in vivo test, MCF7; design: species or system mouse
# Experimental: as §1
# [9] = system: melanoma cancer cell line (A375); test: Hollow fiber in vivo test, A375; design: species or system mouse
# Experimental: as §1
# [10] = system: cervical cancer cell line (Hela); test: Hollow fiber in vivo test, Hela; design: species or system mouse
# Experimental: as §1
# HCT116-tumor xenograft = test: HCT116 xenograft mouse model; type: in vivo; conditions: for Inhibition of HCT116 tumor growth (excised tumor weights): every other day for 21 days
# Experimental: The treatment started on the 6th day when the HCT116-tumor reached approximately 100 mm^3 (L×W×W). […] All mice died for the maytansine group after the initial two treatments at the dose of 0.1 mg/kg, indicating the highly toxicity of maytansine.
# MCF7-tumor xenograft = test: MCF7 xenograft mouse model; conditions: for Inhibition of MCF7 tumor growth (excised tumor weights): twice a week for 3 weeks
# Experimental: The treatment started on the 12th day when the MCF7-tumor size reached approximately 100 mm^3 (L×W×H). Two doses of MV-A (1.0 and 2.0 mg/kg), paclitaxel (5 mg/kg), and vehicle were administered via i.p. (intraperitoneal), i.v. (intravenous), or oral respectively, to the tumor-bearing mice twice a week for 3 weeks ([…]).
# Antitumor animal study. All animal studies were approved and performed according to Animal Care and Use Guidelines of the Animal Ethics Committee at Hong Kong Baptist University and performed following Animal Care and Use guidelines set by NIH (National Institute of Health, USA). BALB/c nude mice, SPF class, male or female, 5-6 weeks old, were purchased from Charles River Laboratories. Before the experiment, it is one week of acclimatization to SPF class laboratory conditions. MV-A is tested for its anticancer activity against HCT116 and MCF7 cancer cells using a number of nude mice (Balc/nu/nu, female) in comparison of paclitaxel and maytansine. HCT116 or MCF7 cancer cells are subcutaneously implanted with 5×10^6 cells in the rear flank of each mouse. Female mice receiving MCF-7 cells are implanted with an s.c. pellet of 17β-estradiol (0.72 mg/pellet) a few days prior to injection to induce tumors. […] The mice are divided into 5 groups for HCT116 cancer cells: one high dose (1.0 mg/kg: 10 mice) group of MV-A, one low dose (0.5 mg/kg: 10 mice) group of MV-A, one dose (5.0 mg/kg: 10 mice) of paclitaxel, one dose of maytansine (0.1 mg/kg) and one dose of vehicle (negative control: 10 mice). The mice are then divided into 4 groups for MCF7 cancer cells: one high dose (2.0 mg/kg: 10 mice) group of MV-A, one low dose (1.0 mg/kg: 10 mice) group of MV-A, one dose (5.0 mg/kg: 10 mice) of paclitaxel, and one dose of vehicle (negative control: 10 mice). Every other day administration via i.p. (intraperitoneal), i.v. (intravenous), or oral, respectively are scheduled for 21 days for the HCT116 groups. Twice a week injections administered via i.p. (intraperitoneal), i.v. (intravenous), or oral, respectively are scheduled for […] for the MCF7 groups. Weights of mice and tumor diameters are measured twice a week until the end of the experiment. The tumor size in mm^3 was calculated by the formula: tumor size=length×width×height (L×W×H).
# 3T3-L1 murine adipocytes [11] = test: 3T3-L1 fat accumulation (triglyceride) assay; type: cell-based; conditions: differentiated 3T3-L1 adipocytes, 7 days, read-out: Anti-obesity activity (fat accumulation) EC50
# Experimental: (§2) MV-A, MV-B, MV-C and MV-D are evaluated for their anti-obesity effects in 3T3-L1 murine adipocytes. 3T3-L1 cells are cultured in the presence of insulin to induce adipocyte differentiation.
# (§3) Pure compounds are evaluated against 3T3-L1 cell line for their potential anti-obesity activity. […] After the cells reach 100% confluence, the culture medium is changed to a differentiation DMEM medium containing 10% FCS, […], 0.5 mM 3-isobutyl-1-methylxanthine (IBMX), 90 U/mL penicillin, […] and 10 μg/mL insulin for induction of the adipocyte form of the 3T3-L1 cells. After 2 days, the differentiation medium is changed back to the normal DMEM medium and refreshed with the normal medium every 2 days. After incubation of additional 7 days, the cells are seeded in two sets of 96-well plates (about 10,000 cells per well). The test compounds in different concentrations are then added to the wells with 0.5% aqueous DMSO as control group. After incubation of 7 days, the differentiated 3T3-L1 adipocytes are treated with 2% Triton-X 100 ([…]) for 30 min at room temperature followed by sonication for 1 min. Fat accumulation is determined by measuring the liberated triglyceride using a Wato Triglyceride E-test Kit with the absorbance at 630/690 nm. The fat-accumulation rate is calculated as a percentage of the DMSO control. […] The cell viability of the differentiated 3T3-L1 adipocytes in another 96-well plate is treated with a Wako Cell Counting Kit-8 Test and measured with the absorbance at 450 nm. The cell viability is calculated as a percentage of the control.
# 3T3-L1 murine adipocytes [12] = test: 3T3-L1 adipocyte cell viability; type: cell-based; conditions: differentiated 3T3-L1 adipocytes
# Experimental: as §2, §3
# [13] = Body weight of mice after drug treatment; conditions: 1 mg/kg and 2 mg/kg
structure (smiles),measurement,setting,value
CC(C)CC1NC(=O)C(C)N(C)C(=O)C(C)N(C)C(=O)C(C2C(C)C2C)NC(=O)C(CC(C)C)N(C)C(=O)C(C)N(C)C(=O)C(CC(C)C)NC1=O (stereo not shown) [Compound 3] (cyclo([X3][NMeA][NMeA]LL[NMeA][NMeL]); configuration not given here),IC50,"[1]; 72 hours, read-out: Cytotoxic activity IC50, KB",12.5 nM
same,IC50,"[2]; 72 hours, read-out: Cytotoxic activity IC50, A549",51.8 nM
same,IC50,"[3]; 72 hours, read-out: Cytotoxic activity IC50, MCF7",26.6 nM
same,Reduction in activity in comparison with 1,[4]; compound with only one DMCPA residue versus 1,at least 100 times
same,IC50,[5],43.5 nM
CC(C)C[C@H]1NC(=O)[C@@H](C)N(C)C(=O)[C@H](C)N(C)C(=O)[C@H](C2[C@@H](C)[C@@H]2C)NC(=O)[C@H](CC(C)C)N(C)C(=O)[C@H](C)N(C)C(=O)[C@@H](C2[C@@H](C)[C@@H]2C)NC1=O (stereo partly drawn) [MV-A] (cyclo([NMeA][NMeL][X1][NMeA][dNMeA][dL][X2])),Inhibition (%),"[6]; A549-IP, 0.05 mg/kg",18.2%
same,Inhibition (%),"[6]; A549-IP, 0.1 mg/kg",56.6%
same,Inhibition (%),"[6]; A549-SC, 0.05 mg/kg",0%
same,Inhibition (%),"[6]; A549-SC, 0.1 mg/kg",36.4%
same,Inhibition (%),"[7]; HCT116-IP, 0.1 mg/kg",33.1%
same,Inhibition (%),"[7]; HCT116-IP, 0.2 mg/kg",53.3%
same,Inhibition (%),"[7]; HCT116-IP, 0.8 mg/kg",65.0%
same,Inhibition (%),"[7]; HCT116-SC, 0.1 mg/kg",0%
same,Inhibition (%),"[7]; HCT116-SC, 0.2 mg/kg",15.1%
same,Inhibition (%),"[7]; HCT116-SC, 0.8 mg/kg",12.7%
same,Inhibition (%),"[8]; MCF7-IP, 0.05 mg/kg",65.9%
same,Inhibition (%),"[8]; MCF7-IP, 0.1 mg/kg",76.8%
same,Inhibition (%),"[8]; MCF7-IP, 0.2 mg/kg",68.3%
same,Inhibition (%),"[8]; MCF7-IP, 0.4 mg/kg",66.7%
same,Inhibition (%),"[8]; MCF7-SC, 0.05 mg/kg",0%
same,Inhibition (%),"[8]; MCF7-SC, 0.1 mg/kg",0%
same,Inhibition (%),"[8]; MCF7-SC, 0.2 mg/kg",13.9%
same,Inhibition (%),"[8]; MCF7-SC, 0.4 mg/kg",56.0%
same,Inhibition (%),"[9]; A375-IP, 0.2 mg/kg",35.3%
same,Inhibition (%),"[9]; A375-IP, 0.4 mg/kg",67.4%
same,Inhibition (%),"[9]; A375-SC, 0.2 mg/kg",17.2%
same,Inhibition (%),"[9]; A375-SC, 0.4 mg/kg",27.8%
same,Inhibition (%),"[10]; Hela-IP, 0.2 mg/kg",45.8%
same,Inhibition (%),"[10]; Hela-IP, 0.4 mg/kg",82.7%
same,Inhibition (%),"[10]; Hela-SC, 0.2 mg/kg",23.2%
same,Inhibition (%),"[10]; Hela-SC, 0.4 mg/kg",52.8%
same,Inhibition of HCT116 tumor growth (excised tumor weights),HCT116-tumor xenograft; 0.5 mg/kg (low dose),31.1%
same,Inhibition of HCT116 tumor growth (excised tumor weights),HCT116-tumor xenograft; 1.0 mg/kg (high dose),52.8%
same,Weight loss of mice after the first two treatments,"HCT116-tumor xenograft; HCT116 xenograft, 0.5 and 1.0 mg/kg groups",1 to 2 g
same,Inhibition of MCF7 tumor growth (excised tumor weights),MCF7-tumor xenograft; 1.0 mg/kg (low dose),48.1%
same,Inhibition of MCF7 tumor growth (excised tumor weights),MCF7-tumor xenograft; 2.0 mg/kg (high dose),72.6%
same,Weight loss of mice after the first two treatments,"MCF7-tumor xenograft; MCF7 xenograft, 1.0 and 2.0 mg/kg groups",1 to 2 g
same,EC50,3T3-L1 murine adipocytes [11],0.3 nM
same,IC50,3T3-L1 murine adipocytes [12],12.9 nM
same,IC50,[4],0.05 to 1.5 nM
same,Mortality during the treatments,[13],No mice die
same,Toxicity observed from dissection of the mice,[13],No sign of toxicity
same,Drop of average weight of mice after the first two treatments,"[13]; intravenous, intraperitoneal or oral",1 to 2 g
CC(C)C[C@H]1NC(=O)[C@@H](C)N(C)C(=O)[C@H](C)N(C)C(=O)[C@H](C2[C@@H](C)[C@@H]2C)NC(=O)[C@H](CC(C)CO)N(C)C(=O)[C@H](C)N(C)C(=O)[C@@H](C2[C@@H](C)[C@@H]2C)NC1=O (stereo partly shown) [MV-B],EC50,3T3-L1 murine adipocytes [11],2.6 nM
same,IC50,3T3-L1 murine adipocytes [12],83.7 nM
same,IC50,[4],0.7 to 9.1 nM
"CC(C)C[C@H]1NC(=O)[C@@H](C)N(C)C(=O)[C@H](C)N(C)C(=O)[C@H](C2[C@@H](C)[C@@H]2C)NC(=O)[C@H](CC(C)C)N(C)C(=O)[C@H](C)N(C)C(=O)[C@@H](CC(C)C)NC1=O (stereo partly drawn) [MV-C] (HELM PEPTIDE1{[meA].[meL].[C[C@@H]1C([C@H](N[*:1])C(=O)[*:2])[C@H]1C].[meA].[C[C@H](C(=O)[*:2])N(C)[*:1]].[dL].[dL]}$PEPTIDE1,PEPTIDE1,1:R1-7:R2$$$V2.0)",EC50,3T3-L1 murine adipocytes [11],38.9 nM
same,IC50,3T3-L1 murine adipocytes [12],689 nM
same,IC50,[4],12 to 60 nM
"CC[C@]1(O)C[C@@H]2CN(CCc3c([nH]c4ccccc34)[C@@](C(=O)OC)(c3cc4c(cc3OC)N(C)[C@H]3[C@@](O)(C(=O)OC)[C@H](OC(C)=O)[C@]5(CC)C=CCN6CC[C@]43[C@@H]65)C2)C1 [Vinblastine, reference compound]","Cytotoxic activity IC90, KB",[1],10.1 nM
same,IC90,"[2]; Homo sapiens, read-out: Cytotoxic activity IC90, A549",> 40 nM
same,IC90,"[3]; Homo sapiens, read-out: Cytotoxic activity IC90, MCF7",> 50 nM
